Experimental data published in PubChem BioAssay (NCI).
“And” between values parts separate entries of the source, which are not always exact repeats. Equal entries are not always repeated.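 How tested: cells in 96-well plates exposed to compound for 48 hours at five concentrations. Here, GI50 denotes the concentration required for 50% inhibition of growth. TGI: total growth inhibition.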

Assays:
Test in all cases: NCI anticancer screen, dose series, 48 h
MALME-3M melanoma = system: MALME-3M melanoma
HS 578T breast = system: HS 578T breast
CCRF-CEM leukemia = system: CCRF-CEM leukemia
NCI/ADR-RES ovarian = system: NCI/ADR-RES ovarian
SR leukemia = system: SR leukemia
A549 NSCLC = system: A549 NSCLC
NCI-H522 lung = system: NCI-H522 lung
SNB-19 CNS = system: SNB-19 CNS
HOP-62 NSCLC = system: HOP-62 NSCLC
HCC-2998 colon = system: HCC-2998 colon
T-47D breast = system: T-47D breast
SK-OV-3 ovarian = system: SK-OV-3 ovarian
MDA-MB-231 breast = system: MDA-MB-231 breast
BT-549 breast = system: BT-549 breast
SF-539 CNS = system: SF-539 CNS
OVCAR-8 ovarian = system: OVCAR-8 ovarian
U251 CNS = system: U251 CNS
DU-145 prostate = system: DU-145 prostate
UACC-257 melanoma = system: UACC-257 melanoma
PC-3 prostate = system: PC-3 prostate
MOLT-4 leukemia = system: MOLT-4 leukemia
UACC-62 melanoma = system: UACC-62 melanoma
HOP-92 NSCLC = system: HOP-92 NSCLC
NCI-H23 lung = system: NCI-H23 lung
SF-295 CNS = system: SF-295 CNS
SW-620 colon = system: SW-620 colon
LOX IMVI melanoma = system: LOX IMVI melanoma
EKVX NSCLC = system: EKVX NSCLC
SK-MEL-5 melanoma = system: SK-MEL-5 melanoma
SK-MEL-28 melanoma = system: SK-MEL-28 melanoma
RXF 393 renal = system: RXF 393 renal
KM12 colon = system: KM12 colon
RPMI-8226 leukemia = system: RPMI-8226 leukemia
IGROV1 ovarian = system: IGROV1 ovarian
SNB-75 CNS = system: SNB-75 CNS
MDA-MB-435 = system: MDA-MB-435
NCI-H226 lung = system: NCI-H226 lung
K-562 leukemia = system: K-562 leukemia
MCF7 breast = system: MCF7 breast
HCT-15 colon = system: HCT-15 colon
COLO 205 colon = system: COLO 205 colon
SK-MEL-2 melanoma = system: SK-MEL-2 melanoma
SF-268 CNS = system: SF-268 CNS
HCT-116 colon = system: HCT-116 colon
OVCAR-5 ovarian = system: OVCAR-5 ovarian
OVCAR-4 ovarian = system: OVCAR-4 ovarian
786-0 renal = system: 786-0 renal
CAKI-1 renal = system: CAKI-1 renal
HT29 colon = system: HT29 colon
OVCAR-3 ovarian = system: OVCAR-3 ovarian
TK-10 renal = system: TK-10 renal
HL-60(TB) leukemia = system: HL-60(TB) leukemia
M14 melanoma = system: M14 melanoma
SN12C renal = system: SN12C renal
UO-31 renal = system: UO-31 renal
NCI-H460 lung = system: NCI-H460 lung
ACHN renal = system: ACHN renal
A498 renal = system: A498 renal

Compound: CCOc1ccc(Nc2c3ccccc3nc3ccccc23)cc1
- GI50 (MALME-3M melanoma): 806 nM and 468 nM
- TGI (MALME-3M melanoma): 4100 nM and 3450 nM
- GI50 (HS 578T breast): 1230 nM and 290 nM
- GI50 (CCRF-CEM leukemia): 585 nM and 739 nM
- TGI (CCRF-CEM leukemia): > 31700 nM and 3260 nM
- GI50 (NCI/ADR-RES ovarian): 271 nM and 117 nM
- TGI (NCI/ADR-RES ovarian): 588 nM
- GI50 (SR leukemia): 307 nM and 42 nM
- TGI (SR leukemia): 6890 nM and 1110 nM
- GI50 (A549 NSCLC): 734 nM and 887 nM
- TGI (A549 NSCLC): 9630 nM and 12500 nM
- GI50 (NCI-H522 lung): 214 nM and 319 nM
- TGI (NCI-H522 lung): 1440 nM and 11800 nM
- GI50 (SNB-19 CNS): 817 nM and 556 nM
- TGI (SNB-19 CNS): 13800 nM and 15300 nM
- GI50 (HOP-62 NSCLC): 416 nM and 672 nM
- TGI (HOP-62 NSCLC): 5250 nM and 13100 nM
- GI50 (HCC-2998 colon): 816 nM
- TGI (HCC-2998 colon): 2780 nM and 650 nM
- GI50 (T-47D breast): 1340 nM and 916 nM
- TGI (T-47D breast): 3780 nM and 3830 nM
- GI50 (SK-OV-3 ovarian): 501 nM and 323 nM
- TGI (SK-OV-3 ovarian): 6060 nM and 7730 nM
- GI50 (MDA-MB-231 breast): 1910 nM and 959 nM
- TGI (MDA-MB-231 breast): 9670 nM and 14500 nM
- GI50 (BT-549 breast): 478 nM and 556 nM
- TGI (BT-549 breast): 9510 nM and 10200 nM
- GI50 (SF-539 CNS): 510 nM and 419 nM
- TGI (SF-539 CNS): 11800 nM and 10200 nM
- GI50 (OVCAR-8 ovarian): 540 nM and 592 nM
- TGI (OVCAR-8 ovarian): 2450 nM and 15000 nM
- GI50 (U251 CNS): 464 nM and 381 nM
- TGI (U251 CNS): 2250 nM and 1900 nM
- GI50 (DU-145 prostate): 843 nM and 1010 nM
- TGI (DU-145 prostate): 9340 nM and 6590 nM
- GI50 (UACC-257 melanoma): 552 nM and 888 nM
- TGI (UACC-257 melanoma): 2220 nM and 6320 nM
- GI50 (PC-3 prostate): 392 nM and 748 nM
- TGI (PC-3 prostate): 7290 nM and 5610 nM
- GI50 (MOLT-4 leukemia): 476 nM and 258 nM
- TGI (MOLT-4 leukemia): 5590 nM and 1270 nM
- GI50 (UACC-62 melanoma): 506 nM and 216 nM
- TGI (UACC-62 melanoma): 4250 nM and 1300 nM
- GI50 (HOP-92 NSCLC): 299 nM and 1060 nM
- TGI (HOP-92 NSCLC): 3160 nM and 9420 nM
- GI50 (NCI-H23 lung): 495 nM and 422 nM
- TGI (NCI-H23 lung): 4510 nM and 3300 nM
- GI50 (SF-295 CNS): 228 nM and 219 nM
- TGI (SF-295 CNS): 1110 nM and 956 nM
- GI50 (SW-620 colon): 369 nM and 339 nM
- TGI (SW-620 colon): 5200 nM and 4020 nM
- GI50 (LOX IMVI melanoma): 515 nM and 529 nM
- TGI (LOX IMVI melanoma): 2980 nM
- GI50 (EKVX NSCLC): 863 nM and 613 nM
- TGI (EKVX NSCLC): 7560 nM and 6100 nM
- GI50 (SK-MEL-5 melanoma): 343 nM and 371 nM
- TGI (SK-MEL-5 melanoma): 1330 nM and 1450 nM
- GI50 (SK-MEL-28 melanoma): 855 nM and 378 nM
- TGI (SK-MEL-28 melanoma): 6510 nM and 2320 nM
- GI50 (RXF 393 renal): 397 nM and 402 nM
- TGI (RXF 393 renal): 2250 nM and 2710 nM
- GI50 (KM12 colon): 581 nM and 487 nM
- TGI (KM12 colon): 9390 nM and 4520 nM
- GI50 (RPMI-8226 leukemia): 1070 nM and 364 nM
- TGI (RPMI-8226 leukemia): 4580 nM and 4030 nM
- GI50 (IGROV1 ovarian): 758 nM and 320 nM
- TGI (IGROV1 ovarian): 14900 nM and 13400 nM
- GI50 (SNB-75 CNS): 309 nM and 250 nM
- TGI (SNB-75 CNS): 3390 nM and 1520 nM
- GI50 (MDA-MB-435): 38.2 nM and 57.4 nM
- TGI (MDA-MB-435): 359 nM and 279 nM
- GI50 (NCI-H226 lung): 1330 nM and 1290 nM
- TGI (NCI-H226 lung): 3830 nM and 4060 nM
- GI50 (K-562 leukemia): 316 nM and 61.6 nM
- GI50 (MCF7 breast): 318 nM and 297 nM
- TGI (MCF7 breast): 4200 nM and 4230 nM
- GI50 (HCT-15 colon): 592 nM and 552 nM
- TGI (HCT-15 colon): 3180 nM
- GI50 (COLO 205 colon): 313 nM and 307 nM
- TGI (COLO 205 colon): 1390 nM and 1330 nM
- GI50 (SK-MEL-2 melanoma): 402 nM and 413 nM
- TGI (SK-MEL-2 melanoma): 3760 nM and 1690 nM
- GI50 (SF-268 CNS): 709 nM and 526 nM
- TGI (SF-268 CNS): 19100 nM and 13900 nM
- GI50 (HCT-116 colon): 335 nM and 318 nM
- TGI (HCT-116 colon): 1320 nM and 2810 nM
- GI50 (OVCAR-5 ovarian): 1910 nM and 514 nM
- TGI (OVCAR-5 ovarian): 18300 nM and 13200 nM
- GI50 (OVCAR-4 ovarian): 748 nM and 1350 nM
- TGI (OVCAR-4 ovarian): 7360 nM and 10800 nM
- GI50 (786-0 renal): 666 nM and 340 nM
- TGI (786-0 renal): 6670 nM and 2610 nM
- GI50 (CAKI-1 renal): 359 nM and 376 nM
- TGI (CAKI-1 renal): 3320 nM and 1750 nM
- GI50 (HT29 colon): 307 nM and 264 nM
- TGI (HT29 colon): 1260 nM and 1080 nM
- GI50 (OVCAR-3 ovarian): 313 nM and 264 nM
- TGI (OVCAR-3 ovarian): 1170 nM and 1030 nM
- GI50 (TK-10 renal): 797 nM and 654 nM
- TGI (TK-10 renal): 4270 nM and 12300 nM
- GI50 (HL-60(TB) leukemia): 1580 nM and 545 nM
- TGI (HL-60(TB) leukemia): 5150 nM and 2540 nM
- GI50 (M14 melanoma): 359 nM and 312 nM
- TGI (M14 melanoma): 1510 nM and 1690 nM
- GI50 (SN12C renal): 1080 nM and 1000 nM
- TGI (SN12C renal): 14500 nM and 9760 nM
- GI50 (UO-31 renal): 677 nM and 356 nM
- TGI (UO-31 renal): 3990 nM and 3740 nM
- GI50 (NCI-H460 lung): 407 nM and 347 nM
- TGI (NCI-H460 lung): 3030 nM and 1820 nM
- GI50 (ACHN renal): 953 nM and 636 nM
- TGI (ACHN renal): 3830 nM and 2150 nM
- GI50 (A498 renal): 307 nM and 332 nM
- TGI (A498 renal): 6810 nM and 3020 nM
